What was measured:
PIM1 = target: T1, PIM1 (Homo sapiens, UniProt P11309); experiment: KINOMEscan competition binding assay, PIM1
T1 construct: purchased Eurofins (KINOMEscan assay service); host or cells: E. coli BL21-derived (T7 phage) or HEK-293
Excerpt: (§1) The Hill Slope was set to −1.

MOLT-16 = experiment: Cell viability assay, leukaemia cell line MOLT-16; type: cell-based; conditions: Homo sapiens; MOLT-16 leukaemia cell line
Method: (§2) Antitumor activity of the compounds and doxorubicin as a positive control was assessed by using the CellTiter-Blue Cell Viability Assay (Promega, #G8082) or CellTiter-Glow® Luminescent Cell Viability assay (Promega # G7572) according to the manufacturer's instructions. The compounds were tested at 5 or 6 concentrations in half-log increments (highest concentration 30 μM-100 μM) in duplicate or triplicate well conditions.
(§3) Tumor cells were grown at 37° C. in a humidified atmosphere with 5% CO2 in RPMI 1640 or DMEM medium, supplemented with 10% (v/v) fetal calf serum and 50 μg/ml gentamicin for up to 20 passages, and were passaged once or twice weekly. Cells were harvested using TrypLE or PBS buffer containing 1 mM EDTA, and the percentage of viable cells is determined using a CASY Model TT cell counter (OMNI Life Science). Cells were harvested from exponential phase cultures, counted and plated in 96 well flat-bottom microtiter plates at a cell density depending on the cell line's growth rate (4,000-20,000 cells/well depending on the cell line's growth rate, up to 60,000 for hematological cancer cell lines) in RPMI 1640 or DMEM medium supplemented with 10% (v/v) fetal calf serum and 50 μg/ml gentamicin (140 μl/well). […] Viability of cells was quantified by the CellTiter-Blue® cell viability assay (Promega G8081) or CellTiter-Glow® Luminescent Cell Viability assay (Promega # G7572). […]

PIM2 = target: T2, PIM2 (Homo sapiens, UniProt Q9P1W9); experiment: KINOMEscan competition binding assay, PIM2
T2 construct: purchased Eurofins (KINOMEscan assay service); host or cells: E. coli BL21-derived (T7 phage) or HEK-293
Excerpt: as §1

[1] = tested on: U87MG human glioblastoma cells; experiment: In vivo tumour inhibition of xenograft human glioblastoma U87MG; conditions: 10 mg/kg/inj i.p. qod
HBCx-3 = experiment: PDX cytotoxicity assay, breast PDX HBCx-3; type: cell-based
Method: (§4) PDX-derived cell cultures were obtained from tumors explanted from mice and isolated by mechanical and enzymatic dissociation. […] Cells were harvested and seeded in 96-wells plates at a density of 1.25 to 5×10^3 cells/well for cytotoxicity assays. Cells were incubated 48 h at 37° C. prior to addition of test molecules and vehicle (DMSO, 0.1%) at desired final concentrations. Cell viability was assessed before drugs' addition (T0) and 5 days after test molecules addition by measuring ATP cell content using CellTiter-Glo® Luminescent Cell Viability Assay (Promega) according to the manufacturer's instructions. Luciferase activity was measured on a luminometer (PerkinElmer® EnVision™). Each concentration of compounds was tested in triplicate.
(§5) Viability was calculated as a percentage of ATP value compared to vehicle treated controls.
(§6) For PDX primary cell cultures, the tumour tissue was washed with PBS containing antibiotic-antimycotic and non-tumour tissue and necrotic tumour tissues were separated. The tumour tissue was transferred to a new dish and cut into 1˜2 mm^3 fragments, resuspended in RPMI-1640 medium and centrifuged at 1,200 rpm for 6 min at room temperature. The pelleted material was resuspended with 15 mL of Tumour Cell Digestion Solution and incubated at 37° C. for 1 hour with agitation. […]

SC6 = experiment: PDX cytotoxicity assay, small cell lung carcinoma PDX SC6; type: cell-based
Method: as §4, §5, §6

BR-05-0014E = experiment: PDX cytotoxicity assay, breast PDX BR-05-0014E; type: cell-based
Method: as §4, §5, §6

PIM3 = target: T3, PIM3 (Homo sapiens, UniProt Q86V86); experiment: KINOMEscan competition binding assay, PIM3
T3 construct: purchased Eurofins (KINOMEscan assay service); host or cells: E. coli BL21-derived (T7 phage) or HEK-293
Excerpt: as §1

LU-01-0025 = experiment: PDX cytotoxicity assay, lung carcinoma PDX LU-01-0025; type: cell-based
Method: as §4, §5, §6

MCF-7 = experiment: Cell viability assay, breast carcinoma cell line MCF-7; type: cell-based; conditions: Homo sapiens, MCF7; MCF-7 breast carcinoma cell line
Method: as §2, §3

CO-04-0700 = experiment: PDX cytotoxicity assay, colon PDX CO-04-0700; type: cell-based
Method: as §4, §5, §6

U-87MG = experiment: Cell viability assay, brain carcinoma cell line U-87MG; type: cell-based; conditions: Homo sapiens; U-87MG brain carcinoma cell line, 72 h, absolute IC50
Method: as §2
(§7) Tumor cells were grown at 37° C. in a humidified atmosphere with 5% CO2 in RPMI 1640 or DMEM medium, supplemented with 10% (v/v) fetal calf serum and 50 μg/ml gentamicin for up to 20 passages, and were passaged once or twice weekly. Cells were harvested using TrypLE or PBS buffer containing 1 mM EDTA, and the percentage of viable cells is determined using a CASY Model TT cell counter (OMNI Life Science). Cells were harvested from exponential phase cultures, counted and plated in 96 well flat-bottom microtiter plates at a cell density depending on the cell line's growth rate (4,000-20,000 cells/well depending on the cell line's growth rate, up to 60,000 for hematological cancer cell lines) in RPMI 1640 or DMEM medium supplemented with 10% (v/v) fetal calf serum and 50 μg/ml gentamicin (140 μl/well). Cultures were incubated at 37° C. and 5% CO2 in a humidified atmosphere. After 24 h, 10 μl of test compounds or control medium are added, and left on the cells for another 72 h. Compounds were serially diluted in DMSO, transferred in cell culture medium, and added to the assay plates. The DMSO concentration was kept constant at <0.3% v/v across the assay plate. Viability of cells was quantified by the CellTiter-Blue® cell viability assay (Promega G8081) or CellTiter-Glow® Luminescent Cell Viability assay (Promega # G7572). Fluorescence (FU) was measured by using the EnSpire® multimode plate reader (Perkin Elmer) (excitation λ=570 nm, emission λ=600 nm) or luminescent detection of ATP in viable cells was used as parameter for proliferation. Luminescence was measured with the microplate luminometer (Promega or Perkin Elmer).
(§8) Sigmoidal concentration-response curves were fitted to the data points (test-versus-control, T/C values) obtained for each tumor model using 4 parameter non-linear curve fit (Charles River DRS Datawarehouse Software) or with GraphPad prism 5.02 software. IC50 values are reported as absolute IC50 values, being the concentration of test compound at the intersection of the concentration-response curves with T/C=50%

breast cancer cell = experiment: Cell viability assay, breast cancer cell lines (summary); type: cell-based; conditions: summary of Tables 4A and 4B; read-out: IC50s, breast cancer cell growth
Method: as §2, §7, §8

GA-10 = experiment: Cell viability assay, lymphoma cell line GA-10; type: cell-based; conditions: Homo sapiens; GA-10 lymphoma cell line
Method: as §2, §3

brain cancer cell = experiment: Cell viability assay, brain cancer cell lines (summary); type: cell-based; conditions: summary of Tables 3A-D; read-out: IC50s, brain cancer cell growth
Method: as §2, §7, §8

NAWALMA = experiment: Cell viability assay, lymphoma cell line NAWALMA; type: cell-based
Method: as §2, §3

## COc1c(O)ccc2c(=O)cc(-c3ccc(CNCCCCNCCCN)cc3)oc12 [SND164]
PIM1
  Kd: 0.58 µM
MOLT-16
  IC50: 4.36 µM
PIM2
  Kd: 0.63 µM
[1]; U87MG xenograft mice
  body weight loss: no significant body weight loss
  death during the study: no death
  tolerability of the treatment: well tolerated
[1]; glioblastoma U87MG CDX s.c. in nude mice, 10 injections, ***P < 0.001 vs vehicle
  Optimum T/C, day 26: 54***
HBCx-3
  IC50: 10 µM
SC6
  IC50: 3.64 µM
BR-05-0014E
  IC50: 13.3 µM
PIM3
  Kd: 0.43 µM
LU-01-0025
  IC50: 5 µM
MCF-7
  IC50: 4.3 µM
CO-04-0700
  IC50: 7 µM
U-87MG
  IC50: 5.7 µM
Breast cancer cell
  IC50: < 10 µM
GA-10
  IC50: 3.9 µM
Brain cancer cell
  IC50: < 10 µM
NAWALMA
  IC50: 2.6 µM

From patent US20240132461A1, “FLAVONE DEAZA SPERMIDINE ANALOGUES AND THEIR USE TREATING CANCER” (FLORATEK PHARMA S.A., priority 2021, published 2024)
